From patent US20220098203A1 (priority 2018, published 2022)

The compounds below were run against T1, MAT2A homodimer (Homo sapiens, UniProt P31153) (assay: MAT2A biochemical assay (liberated phosphate, PiColorLock Gold)). Conditions: Table 5a; MAT2A biochemical assay; read-out: Enzyme Inhibition.
T1 construct: inferred from the Ni sepharose purification and imidazole elution; made in house; host or cells: SF9 insect cells, recombinant baculovirus (Bac to Bac, pFASTBAC1)
T1 sequence (P31153 whole entry): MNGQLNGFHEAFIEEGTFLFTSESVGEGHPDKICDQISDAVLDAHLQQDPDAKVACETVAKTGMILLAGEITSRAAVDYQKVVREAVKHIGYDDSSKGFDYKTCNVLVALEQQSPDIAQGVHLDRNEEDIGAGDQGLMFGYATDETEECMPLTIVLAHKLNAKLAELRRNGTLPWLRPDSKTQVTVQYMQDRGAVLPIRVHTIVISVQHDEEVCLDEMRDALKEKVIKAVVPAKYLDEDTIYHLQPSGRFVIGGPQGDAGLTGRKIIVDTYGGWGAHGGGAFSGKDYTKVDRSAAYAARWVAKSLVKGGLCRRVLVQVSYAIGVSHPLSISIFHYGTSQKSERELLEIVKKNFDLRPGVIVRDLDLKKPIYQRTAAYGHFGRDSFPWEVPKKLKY
Experimental: Mat2A protein was expressed by recombinant baculovirus in SF9 infected cells using the Bac to Bac system cloned into the pFASTBAC1 vector (Invitrogen, Carlsbad, Calif.). Recombinant MAT2A was isolated from the cell lysate of 150 g of infected cells using HP Ni sepharose column chromatography. Recombinant MAT2A homodimer was eluted with 250 and 500 mM imidazole, and fractions containing MAT2A were identified by sodium dodecyl sulfate polyacrylamide gel electrophoresis and pooled.
Test compound was prepared in 100% dimethyl sulfoxide (DMSO) at 50× the desired final concentration. A 1 μL volume of compound dilution was added to 40 μL of enzyme dilution and the mixture was allowed to equilibrate for 60 minutes at 25° C. The enzymatic assay was initiated by the addition of 10 μL of substrate mix (500 μM ATP, pH 7.0, 400 μM L-methionine in 1× assay buffer), and the mixture was incubated for a further 60 minutes at 25° C. The reaction was halted and the liberated phosphate released by the enzyme in stoichiometric amounts by the production of S-adenosyl methionine (SAM) was measured using the PiColorLock Gold kit (Innova Biosciences, UK). Absolute product amounts were determined by comparison to a standard curve of potassium phosphate buffer, pH 8.0.
Compound `COCc1ccc(N2C(=O)N(c3ccc(OC)cc3)Cc3cnc(NCC(F)(F)F)nc32)cc1` [Example 209, 1-(4-(methoxymethyl)phenyl)-3-(4-methoxyphenyl)-7-((2,2,2-trifluoroethyl)amino)-3,4-dihydropyrimido[4,5-d]pyrimidin-2(1H)-one] has an IC50 of 100 to 1000 nM. `Cn1cc2cc(N3Cc4nnc(NCC(F)(F)F)cc4N(c4ccc(OC(F)F)cc4)C3=O)ccc2n1` [Example 293] was tested, and the IC50 was 100 to 1000 nM. In the case of `[2H]C([2H])([2H])Oc1ccc(N2C(=O)N(c3ccc4nn(C)cc4c3)C(C)c3ccc(OCC(F)F)nc32)cc1` (stereo not drawn) [Example 286, 7-(2,2-difluoroethoxy)-1-(4-(methoxy-d3)phenyl)-4-methyl-3-(2-methyl-2H-indazol-5-yl)-3,4-dihydropyrido[2,3-d]pyrimidin-2(1H)-one], the IC50 is reported as 100 to 1000 nM. `CCOc1ccc2c(n1)N(c1ccc(OC)cc1)C(=O)N(c1ccc(F)cc1)C2` [Example 117, 7-ethoxy-3-(4-fluorophenyl)-1-(4-methoxyphenyl)-3,4-dihydropyrido[2,3-d]pyrimidin-2(1H)-one] gave an IC50 of 100 to 1000 nM. `COc1ccc(N2Cc3cnc(NCC(F)(F)F)nc3N(c3ccc(Cl)c(Cl)c3)C2=O)cc1` [Example 245, 1-(3,4-dichlorophenyl)-3-(4-methoxyphenyl)-7-((2,2,2-trifluoroethyl)amino)-3,4-dihydropyrimido[4,5-d]pyrimidin-2(1H)-one] was tested, and the IC50 was 1000 to 10000 nM. With `COc1ccc(N2Cc3cnc(NCC(F)(F)F)nc3N(c3cc4ccccc4s3)C2=O)cc1` [Example 200, 1-(benzo[b]thiophen-2-yl)-3-(4-methoxyphenyl)-7-((2,2,2-trifluoroethyl)amino)-3,4-dihydropyrimido[4,5-d]pyrimidin-2(1H)-one] the IC50 was under 100 nM. Compound `CCOc1ccc2c(n1)N(c1ccc(OC)cc1)C(=O)N(c1cncs1)C2` [Example 127, ethoxy-1-(4-methoxyphenyl)-3-(thiazol-5-yl)-3,4-dihydropyrido[2,3-d]pyrimidin-2(1H)-one] has an IC50 of 100 to 1000 nM. `COc1ccc(N2Cc3cnc(NCC(F)(F)F)nc3N(c3ccc(S(C)(=O)=O)cc3)C2=O)cc1` [Example 189, 3-(4-methoxyphenyl)-1-(4-(methylsulfonyl)phenyl)-7-((2,2,2-trifluoroethyl)amino)-3,4-dihydropyrimido[4,5-d]pyrimidin-2(1H)-one] gave an IC50 of 100 to 1000 nM. Compound `CCOc1cc2c(cn1)CN(c1ccc3nn(C)cc3c1)C(=O)N2c1ccc(Cl)cc1` [Example 418, 1-(4-chlorophenyl)-7-ethoxy-3-(2-methyl-2H-indazol-5-yl)-3,4-dihydropyrido[4,3-d]pyrimidin-2(1H)-one] has an IC50 of 100 to 1000 nM. Work on `COc1ccc(N2Cc3cnc(NCC(F)(F)F)nc3N(c3ccc(-c4cc[nH]c4)cc3)C2=O)cc1` [Example 280, 1-(4-(1H-pyrrol-3-yl)phenyl)-3-(4-methoxyphenyl)-7-((2,2,2-trifluoroethyl)amino)-3,4-dihydropyrimido[4,5-d]pyrimidin-2(1H)-one] yielded an IC50 of 100 to 1000 nM. With `COc1ccc(N2Cc3cnc(NCC(F)(F)F)nc3N(c3ccc(C(C)C)cc3)C2=O)cc1` [Example 212, 1-(4-isopropylphenyl)-3-(4-methoxyphenyl)-7-((2,2,2-trifluoroethyl)amino)-3,4-dihydropyrimido[4,5-d]pyrimidin-2(1H)-one] the IC50 was 100 to 1000 nM. `CCOc1ccc2c(n1)N(c1ccc(C)nc1)C(=O)N(c1ccc3nn(C)cc3c1)C2` [Example 151, 7-ethoxy-3-(2-methyl-2H-indazol-5-yl)-1-(6-methylpyridin-3-yl)-3,4-dihydropyrido[2,3-d]pyrimidin-2(1H)-one] gave an IC50 of 100 to 1000 nM. `Cn1cc2cc(N3Cc4cnc(OCC(F)(F)F)nc4N(c4ccc(-c5nc[nH]n5)cc4)C3=O)ccc2n1` [Example 191, 1-(4-(1H-1,2,4-triazol-3-yl)phenyl)-3-(2-methyl-2H-indazol-5-yl)-7-(2,2,2-trifluoroethoxy)-3,4-dihydropyrimido[4,5-d]pyrimidin-2(1H)-one] gave an IC50 of under 100 nM. `COc1ccc(N2Cc3cnc(NCC(F)(F)F)nc3N(c3cccc(OC)c3)C2=O)cc1` [Example 208, 1-(3-methoxyphenyl)-3-(4-methoxyphenyl)-7-((2,2,2-trifluoroethyl)amino)-3,4-dihydropyrimido[4,5-d]pyrimidin-2(1H)-one] showed an IC50 of 100 to 1000 nM. Compound `Cc1ccc(N2C(=O)N(c3ccc4nn(C)cc4c3)Cc3cnc(NCC(F)(F)F)nc32)cn1` [Example 433, 3-(2-methyl-2H-indazol-5-yl)-1-(6-methylpyridin-3-yl)-7-((2,2,2-trifluoroethyl)amino)-3,4-dihydropyrimido[4,5-d]pyrimidin-2(1H)-one] has an IC50 of under 100 nM. `CCOc1cc2c(nn1)CN(c1ccc3nn(C)cc3c1)C(=O)N2c1ccc(OC(F)F)cc1` [Example 292, 5-(4-(difluoromethoxy)phenyl)-3-ethoxy-7-(2-methyl-2H-indazol-5-yl)-7,8-dihydropyrimido[5,4-c]pyridazin-6(5H)-one] showed an IC50 of 1000 to 10000 nM. Compound `CCOc1ccc2c(n1)N(c1ccc(OC)cc1)C(=O)N(c1ccc(C(=O)NC)cc1)C2` [Example 126, 4-(7-ethoxy-1-(4-methoxyphenyl)-2-oxo-1,2-dihydropyrido[2,3-d]pyrimidin-3(4H)-yl)-N-methylbenzamide] has an IC50 of 100 to 1000 nM. Compound `CCOc1ccc2c(n1)N(c1ccc(C(F)(F)F)nc1)C(=O)N(c1ccc3nn(C)cc3c1)C2` [Example 150] has an IC50 of under 100 nM. Compound `O=C1N(c2ccc3ncccc3c2)Cc2cnc(NCC(F)(F)F)nc2N1c1ccc(C2CC2)cc1` [Example 226, 1-(4-cyclopropylphenyl)-3-(quinolin-6-yl)-7-((2,2,2-trifluoroethyl)amino)-3,4-dihydropyrimido[4,5-d]pyrimidin-2(1H)-one] has an IC50 of under 100 nM. `O=C1N(c2ccc3nccn3c2)Cc2cnc(NCC(F)(F)F)nc2N1c1ccc(OC(F)F)cc1` [Example 225, 1-(4-(difluoromethoxy)phenyl)-3-(imidazo[1,2-a]pyridin-6-yl)-7-((2,2,2-trifluoroethyl)amino)-3,4-dihydropyrimido[4,5-d]pyrimidin-2(1H)-one] was tested, and the IC50 was under 100 nM. `COc1ccc(N2Cc3cnc(NCC(F)(F)F)nc3N(c3ccc(-c4ccc[nH]c4=O)cc3)C2=O)cc1` [Example 279, 3-(4-methoxyphenyl)-1-(4-(2-oxo-1,2-dihydropyridin-3-yl)phenyl)-7-((2,2,2-trifluoroethyl)amino)-3,4-dihydropyrimido[4,5-d]pyrimidin-2(1H)-one] was tested, and the IC50 was 100 to 1000 nM. For `COc1ccc(N2Cc3cnc(NCC(F)(F)F)nc3N(c3ccc(N(C)C)cc3)C2=O)cc1` [Example 201, 1-(4-(dimethylamino)phenyl)-3-(4-methoxyphenyl)-7-((2,2,2-trifluoroethyl)amino)-3,4-dihydropyrimido[4,5-d]pyrimidin-2(1H)-one], the IC50 was under 100 nM.

Same assay, conditions: Table 5b; Additional Examples; read-out: Enzyme Inhibition
Work on `COc1ccc(-n2c(=O)c3cnc(NCC(F)(F)F)nc3n(-c3ccc(OCc4ccccc4)cc3)c2=O)cc1` yielded an IC50 of over 10000 nM. `CCOc1ccc2c(n1)N(c1ccc(OC)cc1)C(=O)N(c1ccc(Cl)cc1)C2` was tested, and the IC50 was over 10000 nM. `COc1ccc(N2C(=O)N(c3ccc4nn(C)cc4c3)Cc3ccc(Nc4ccccc4)nc32)cc1` showed an IC50 of over 10000 nM. `COc1ccc(N2Cc3cnc(NCC(F)(F)F)nc3N(c3ccc(C(=O)N(C)C)cc3)C2=O)cc1` was tested, and the IC50 was 100 to 1000 nM. In the case of `Cn1cc2cc(N3Cc4ccc(OCC(F)F)nc4NC3=O)ccc2n1`, the IC50 is reported as over 10000 nM. In the case of `COc1ccc(N2Cc3cnc(NCC4CC4)nc3N(c3ccccc3)C2=O)cc1`, the IC50 is reported as over 10000 nM. For `COc1ccc(N2Cc3cnc(NCC(F)(F)F)nc3N(c3ccc(-c4ccccc4)cc3)C2=O)cc1`, the IC50 was over 10000 nM. Compound `COc1ccc(N2Cc3cnc(-n4ccnc4)nc3N(c3ccc(O)cc3)C2=O)cc1` has an IC50 of over 10000 nM. Work on `COc1ccc(N2Cc3cnc(NCC(F)(F)F)nc3N(c3ccc(Cl)c(C(F)(F)F)c3)C2=O)cc1` yielded an IC50 of over 10000 nM. Work on `COc1ccc(-n2c(=O)c3cnc(S(C)(=O)=O)nc3n(-c3ccc(OCc4ccccc4)cc3)c2=O)cc1` yielded an IC50 of over 10000 nM. `COc1ccc(N2Cc3cnc(NCC(F)(F)F)nc3N(c3cccc(Br)c3)C2=O)cc1` showed an IC50 of over 10000 nM.
